Values quoted from earlier work as cited in patent US20060198830A1, “Ubiquinone composition and a container for its convenient transport and storage” (priority 2005, published 2006).

Details: administration of 300-1200 mg/day of CoQ10

COC1=C(OC)C(=O)C(C/C=C(\C)CC/C=C(\C)CC/C=C(\C)CC/C=C(\C)CC/C=C(\C)CC/C=C(\C)CC/C=C(\C)CC/C=C(\C)CC/C=C(\C)CCC=C(C)C)=C(C)C1=O [CoQ10, Ubiquinone]
plasma CoQ10 concentrations: 3 to 4 µg/mL
